Test results reported in ChEMBL document CHEMBL1201862, “PubChem BioAssay data set” (2004).
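All cell lines were grown in 96-well plates and treated with compound for 48 hours. Here, GI50 denotes the concentration required for 50% inhibition of growth.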 Active and inactive are the calls of the source. Rule as the data show it: active = GI50 up to about 1.1 µM and inactive = higher.

Assays:
Experiment in all cases: inhibition of tumour cell growth, NCI panel, 48 h
[1] = tested on: DLD-1
[2] = tested on: DMS-114
[3] = tested on: DMS-273
[4] = tested on: HOP-18
[5] = tested on: M19-MEL
[6] = tested on: XF498
[7] = tested on: LXFL 529
[8] = tested on: KM-20L2
[9] = tested on: RXF 631

Structure (SMILES)	GI50 [1]	GI50 [2]	GI50 [3]	GI50 [4]	GI50 [5]	GI50 [6]	GI50 [7]	GI50 [8]	GI50 [9]
Nc1ccc2cc(S(=O)(=O)O)cc(O)c2c1/N=N/c1ccc(NC(=O)Nc2ccc(/N=N/c3c(N)ccc4cc(S(=O)(=O)O)cc(O)c34)c(S(=O)(=O)O)c2)cc1S(=O)(=O)O	> 100 µM (inactive)	98.6 µM (inactive)	> 100 µM (inactive)	> 100 µM (inactive)	> 100 µM (inactive)	> 100 µM (inactive)	–	–	–
COc1ccc2c(c1)[n+]([O-])c(C(C)=O)c(C)[n+]2[O-]	> 100 µM (inactive)	> 100 µM (inactive)	–	> 100 µM (inactive)	> 100 µM (inactive)	> 100 µM (inactive)	> 100 µM (inactive)	–	–
N/C(=N\O)N/N=C/c1cc2c(cc1Cl)OCO2	42.8 µM (inactive)	> 100 µM (inactive)	18.6 µM (inactive)	56.2 µM (inactive)	> 56.9 µM (inactive)	–	–	35.8 µM (inactive)	–
Cc1ccccc1NC(=O)CSc1nnc(Cc2ccccc2)o1	> 100 µM (inactive)	> 100 µM (inactive)	> 100 µM (inactive)	> 100 µM (inactive)	> 100 µM (inactive)	–	> 100 µM (inactive)	> 100 µM (inactive)	–
CC1(CO)OC(n2cnc3c(N)ncnc32)C(O)C1O (stereo not drawn)	> 100 µM (inactive)	> 100 µM (inactive)	> 10 µM (inactive)	> 100 µM (inactive)	> 100 µM (inactive)	–	> 100 µM (inactive)	–	–
O=C(CCCN1CCC(C(O)c2ccc(F)cc2)CC1)c1ccc(F)cc1 (stereo not drawn)	51.8 µM (inactive)	49.7 µM (inactive)	63.5 µM (inactive)	66.8 µM (inactive)	59.6 µM (inactive)	4.46 µM (inactive)	–	41.7 µM (inactive)	–
CC(C)[C@H]1CO[C@@H]2O[C@H](C)CC(=O)N21	> 100 µM (inactive)	> 100 µM (inactive)	–	> 100 µM (inactive)	> 100 µM (inactive)	–	> 100 µM (inactive)	> 100 µM (inactive)	–
CCCCCCC1NN(C(C)=O)C(CCCCCC)NN1C(C)=O (stereo not drawn)	52.1 µM (inactive)	–	> 100 µM (inactive)	> 100 µM (inactive)	> 100 µM (inactive)	–	> 100 µM (inactive)	> 100 µM (inactive)	–
Clc1ccc(OC2CCO2)cc1Cl (stereo not drawn)	85.9 µM (inactive)	34.4 µM (inactive)	63.1 µM (inactive)	> 100 µM (inactive)	> 100 µM (inactive)	–	70.5 µM (inactive)	76.4 µM (inactive)	25.1 µM (inactive)
COc1ccc2c(c1)OC[C@@H]1c3cc(O)c(OCc4ccccc4)cc3O[C@H]21	36.1 µM (inactive)	19.5 µM (inactive)	40.6 µM (inactive)	> 100 µM (inactive)	27 µM (inactive)	26.2 µM (inactive)	18.7 µM (inactive)	33.9 µM (inactive)	45.2 µM (inactive)
Clc1cc(Cl)cc(C2SCc3nc4ccccc4n32)c1 (stereo not drawn)	> 10 µM (inactive)	13.6 µM (inactive)	7.28 µM (inactive)	28.4 µM (inactive)	–	–	14.4 µM (inactive)	–	14.2 µM (inactive)
O=c1[nH]cnc2c(COCCCO)c[nH]c12	> 100 µM (inactive)	> 100 µM (inactive)	–	> 100 µM (inactive)	> 100 µM (inactive)	–	> 100 µM (inactive)	> 100 µM (inactive)	–
Cn1nc(-c2ccccc2)c(C(=O)/C=C/c2ccccc2)c(N2CCCC2)c1=O	12.1 µM (inactive)	11.4 µM (inactive)	14.7 µM (inactive)	16.4 µM (inactive)	16.6 µM (inactive)	18.8 µM (inactive)	11.9 µM (inactive)	14.5 µM (inactive)	29 µM (inactive)
O=C(NC1CCCCC1)NC12CC3CC(CC(F)(C3)C1)C2	> 100 µM (inactive)	> 100 µM (inactive)	> 100 µM (inactive)	–	> 100 µM (inactive)	> 100 µM (inactive)	> 100 µM (inactive)	> 100 µM (inactive)	> 100 µM (inactive)
CN(c1ccc(C(=O)c2ccc(N(C)S(C)(=O)=O)cc2)cc1)S(C)(=O)=O	> 100 µM (inactive)	14.1 µM (inactive)	–	–	> 100 µM (inactive)	–	42.4 µM (inactive)	> 100 µM (inactive)	–
c1ccc(C2N3CCCCC3[C@@H]3c4[nH]c5ccccc5c4CCN23)cc1 (stereo partly drawn)	54.1 µM (inactive)	38.7 µM (inactive)	50.7 µM (inactive)	> 100 µM (inactive)	58.2 µM (inactive)	> 100 µM (inactive)	85.3 µM (inactive)	> 100 µM (inactive)	–
CCCCCCCCCCC(C)CCCCCCC(=O)OCC(COP(=O)([O-])OCC[N+](C)(C)C)OC(=O)CCCCCCC(C)CCCCCCCCCC (stereo not drawn)	> 100 µM (inactive)	> 100 µM (inactive)	> 100 µM (inactive)	> 100 µM (inactive)	> 100 µM (inactive)	–	> 100 µM (inactive)	> 100 µM (inactive)	> 100 µM (inactive)
Cc1c2c(cc3c1[nH]c1ccccc13)C(c1ccc(Cl)cc1)=NCC2	0.452 µM (active)	0.347 µM (active)	0.237 µM (active)	3.99 µM (inactive)	0.726 µM (active)	0.0973 µM (active)	–	0.301 µM (active)	–
Cn1c(=O)c2nc3sc4c(n3c2n(C)c1=O)C(=O)c1ccccc1C4=O	> 100 µM (inactive)	> 100 µM (inactive)	> 100 µM (inactive)	0.433 µM (active)	> 86.7 µM (inactive)	> 100 µM (inactive)	> 100 µM (inactive)	> 100 µM (inactive)	> 100 µM (inactive)
COc1ccc(C(=O)c2c3cc(OC)c(OC)c(OC)c3cc[n+]2C)cc1	17.1 µM (inactive)	23.7 µM (inactive)	–	20.6 µM (inactive)	24.1 µM (inactive)	15 µM (inactive)	24.9 µM (inactive)	28.3 µM (inactive)	37.4 µM (inactive)
Cc1c2cc[n+](C)cc2c(C)c2c1[nH]c1ccccc12	1.65 µM (inactive)	0.315 µM (active)	1.64 µM (inactive)	2.91 µM (inactive)	0.718 µM (active)	0.608 µM (active)	–	–	–
COc1c(CC(C)O)c2c3c(CC(C)O)c(OC)c(=O)c4c(O)cc5c(c6c(cc(O)c(c1=O)c62)OCO5)c43 (stereo not drawn) [CERCOSPORIN]	1.96 µM (inactive)	–	0.906 µM (active)	2.58 µM (inactive)	0.664 µM (active)	–	1.56 µM (inactive)	0.301 µM (active)	–
